Assay results taken from patent publication US20050043396A1, “5-Benzoylamino-1,3-dioxacyclanes, the method for preparing the same and their use as PKC inhibitor” (priority 2003, published 2005).
Marks after values point to notes of the source that are not given here.

System: model of the ear swilling of mice
Test: Anti-inflammatory activity: xylene-induced ear swelling of mice (recognized PKC inhibitor model)
Format: in vivo, Male Kunming species mice
Procedure: Based on the knowledge of cycloacetals as structural types of the PKC inhibitors, the PKC inhibitor model recognized (i.e. model of the ear swilling of mice) was adopted to evaluate the activity of cycloacetals 1-21 as PKC inhibitor.
In the present invention the model of the ear swilling of mice was used to evaluate the anti-inflammatory activity of 5-benzoylamino-1,3-dioxscyclane compounds. The compounds of the present invention were suspended in CMC solution (5%) at the ratio of […], while the positive control was the suspension of aspirin, and CMC solution (5%) at the ratio of […], and the vehicle control was CMC solution (5%). Male Kunming species mice (from Animal Department of Beijing Medical University, grade 2) with weight about 20-25 g, which were randomly divided into treatment group, vehicle control group, and positive control group with 10 mice each group (food deprivation for 8 hours before testing, drinking unlimited) were administered orally once. 30 minutes after the administration, xylene (0.02 ml) was smeared on the left exterior auricular of the mice, and 4 hours later, the mice were killed by dislocation of cervical vertebra. Double circular pinnae were taken from two ears using 9 mm punching bear, and the swelling was determined by the weight variation of the two pinnae.
An adaptation of the method of Gad et al (1986) was employed for sensitization. Mice were allowed to acclimate for a week after arrival in the laboratory, then were screened to remove any from testing which have ears that appear red or swollen. Male Kunming species, 6 to 8 weeks old, about 20-25 g, were shaved and tape stripped at the start of each study. Mice were randomly divided into test group, vehicle control group, and positive control group with 10 mice each one.
[…] The application was allowed to dry before the animal was returned to its cage. Mice were killed 4 hours later, and a 9-mm Keyes cutaneous punch was used to obtain uniform tissue sections for weight variation which indicating the swelling degree. Groups were statistically analyzed using the Wilk-Shapiro test for normality and the paired parametric Student t test with a significance level of p<0.05. Data were expressed as the mean difference plus or minus the standard error.
Each mouse in the vehicle control mice group was administered orally 0.2 ml of carboxymethyl cellulose (0.5%) once a day, while each mouse in the positive control group was administered orally suspension of 0.6 mg of aspirin in 0.2 ml of carboxymethyl cellulose (0.5%) once a day, and each mouse in the test group was administed orally the suspension of 0.6 mg of the compounds of the present invention in 0.2 ml of carboxymethyl cellulose (0.5%) once a day. The applications were repeated for three consecutive days.
Administered with the same manner and dosage.

[1] = administered orally 1 time, 30 mg/kg, n = 10 (Table 2)
[2] = oral once a day for 3 consecutive days, Dosage = 30 mg/Kg, n = 10, weight difference of 9 mm ear punches, xylene
[3] = administered orally 1 time, 21 mg/kg, n = 10 (Table 2)

Question: For `CC(=O)Oc1ccccc1C(=O)O` [Aspirin, aspirin, reference compound], which “Weight variation (X ± SD mg)” value [1] is on record?
Answer: 4.17 ± 1.80^1) mg

Question: And the “Weight variation (X ± SD mg)” value [2]?
Answer: 4.26 ± 1.44^1) mg

Question: How did the “Weight variation (X ± SD mg)” value [1] turn out when `COC(CC1OCC(NC(=O)c2ccccc2)C(C)O1)OC` (centres unmarked) [Compound 9] was run?
Answer: 3.28 ± 2.06^3,5) mg

Question: What about the “Weight variation (X ± SD mg)” value [2] of the same compound?
Answer: 3.97 ± 1.49^1) mg

Question: How did the “Weight variation (X ± SD mg)” value [3] turn out when `COC(CC1OCCC(NC(=O)c2ccccc2)CO1)OC` (centres unmarked) [Compound 18] was run?
Answer: 4.31 ± 1.75^1) mg

Question: Which results are given for `C[C@@H]1O[C@@H](c2ccc([N+](=O)[O-])cc2)OC[C@H]1NC(=O)c1ccccc1` [Compound 24, (2S,4S,5R)-2-p-nitrophenyl-5-benzoylamino-4-methyl-1,3-dioxane]?
Answer: Weight variation (X ± SD mg) (dosage-effect relationship, 2.3 mg/Kg (Table 3)): 3.21 ± 1.68 mg; Weight variation (X ± SD mg) (dosage-effect relationship, 7 mg/Kg (Table 3)): 1.81 ± 0.63 mg; Weight variation (X ± SD mg) (dosage-effect relationship, 30 mg/Kg (Table 3)): 1.43 ± 0.89 mg

Question: Which “Weight variation (X ± SD mg)” value [1] does the source give for `O=CCC1OCC(NC(=O)c2ccccc2)CO1` (centres unmarked) [Compound 38] here?
Answer: 5.81 ± 2.46 mg

Question: `CC1OC(CC=O)OCC1NC(=O)c1ccccc1` (centres unmarked) [Compound 39] was tested. Which “Weight variation (X ± SD mg)” value [1] did it give?
Answer: 4.84 ± 2.30^1) mg

Question: How did the “Weight variation (X ± SD mg)” value [3] turn out when `O=CCC1OCCC(NC(=O)c2ccccc2)CO1` (centres unmarked) [Compound 40] was run?
Answer: 3.55 ± 1.69^3,6) mg
